Source: PubChem BioAssay AID2060910 (Molecular Pharmacology Branch, DTP, NCI, 2025)

Tested on: 242566-281-R-J2-PDC complex spheroid viability
Assay: Anticancer human tumor 242566-281-R-J2-PDC patient-derived pancreatic carcinoma cell line growth inhibition [RAS]
Conditions: for IC50: curve of first compound; for viability, T/C: stronger effect = lower value
Summary of the method: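 Multi-cell-type spheroids: tumor cells plus HUVEC endothelial cells and mesenchymal stem cells. RAS-pathway inhibitors were combined with targeted agents, each dosed in half-log steps down from clinical Cmax, or from 10 microM when Cmax was unknown.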

[1] = second compound 0.000949 µM, first compound 0.0316 µM
[2] = second compound 0.000949 µM, first compound 0.1 µM
[3] = second compound 0.000949 µM, first compound 0.316 µM
[4] = second compound 0.000949 µM, first compound 1 µM
[5] = second compound 0.000949 µM, first compound 3.16 µM
[6] = second compound 0.000949 µM, first compound 10 µM
[7] = second compound 0.003 µM, first compound 0.0316 µM
[8] = second compound 0.003 µM, first compound 0.1 µM
[9] = second compound 0.003 µM, first compound 0.316 µM
[10] = second compound 0.003 µM, first compound 1 µM
[11] = second compound 0.003 µM, first compound 3.16 µM
[12] = second compound 0.003 µM, first compound 10 µM
[13] = second compound 0.00949 µM, first compound 0.0316 µM
[14] = second compound 0.00949 µM, first compound 0.1 µM
[15] = second compound 0.00949 µM, first compound 0.316 µM
[16] = second compound 0.00949 µM, first compound 1 µM
[17] = second compound 0.00949 µM, first compound 3.16 µM
[18] = second compound 0.00949 µM, first compound 10 µM
[19] = second compound 0.03 µM, first compound 0.0316 µM
[20] = second compound 0.03 µM, first compound 0.1 µM
[21] = second compound 0.03 µM, first compound 0.316 µM
[22] = second compound 0.03 µM, first compound 1 µM
[23] = second compound 0.03 µM, first compound 3.16 µM
[24] = second compound 0.03 µM, first compound 10 µM
[25] = second compound 0.0949 µM, first compound 0.0316 µM
[26] = second compound 0.0949 µM, first compound 0.1 µM
[27] = second compound 0.0949 µM, first compound 0.316 µM
[28] = second compound 0.0949 µM, first compound 1 µM
[29] = second compound 0.0949 µM, first compound 3.16 µM
[30] = second compound 0.0949 µM, first compound 10 µM
[31] = second compound 0.3 µM, first compound 0.0316 µM
[32] = second compound 0.3 µM, first compound 0.1 µM
[33] = second compound 0.3 µM, first compound 0.316 µM
[34] = second compound 0.3 µM, first compound 1 µM
[35] = second compound 0.3 µM, first compound 3.16 µM
[36] = second compound 0.3 µM, first compound 10 µM
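Also: spheroids exposed to compound for 7 days before readout.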
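For viability, T/C in this document: 100% = DMSO vehicle control wells.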

CC(C)NCC(C(=O)N1CCN(c2ncnc3c2C(C)CC3O)CC1)c1ccc(Cl)cc1 (stereo unspecified) + CCn1c(-c2cc(N3CCN(C)CC3)cnc2C(C)OC)c2c3cc(ccc31)-c1csc(n1)CC(NC(=O)C1CC1C)C(=O)N1CCCC(N1)C(=O)OCC(C)(C)C2
IC50 (second compound 0.000949 µM): 7980 nM
IC50 (second compound 0.003 µM): 3660 nM
IC50 (second compound 0.00949 µM): < 31.6 nM
IC50 (second compound 0.03 µM): < 31.6 nM
IC50 (second compound 0.0949 µM): < 31.6 nM
IC50 (second compound 0.3 µM): < 31.6 nM
viability, T/C [1]: 92.1%
viability, T/C [2]: 92.8%
viability, T/C [3]: 74.8%
viability, T/C [4]: 95.2%
viability, T/C [5]: 75.2%
viability, T/C [6]: 43.9%
viability, T/C [7]: 78%
viability, T/C [8]: 70.3%
viability, T/C [9]: 57.6%
viability, T/C [10]: 64.8%
viability, T/C [11]: 56.9%
viability, T/C [12]: 28.4%
viability, T/C [13]: 49.6%
viability, T/C [14]: 42.6%
viability, T/C [15]: 48.6%
viability, T/C [16]: 41.5%
viability, T/C [17]: 26%
viability, T/C [18]: 17.9%
viability, T/C [19]: 30.9%
viability, T/C [20]: 31.8%
viability, T/C [21]: 28.5%
viability, T/C [22]: 27.1%
viability, T/C [23]: 12%
viability, T/C [24]: 9.97%
viability, T/C [25]: 23.8%
viability, T/C [26]: 22.7%
viability, T/C [27]: 22.1%
viability, T/C [28]: 20.8%
viability, T/C [29]: 7.71%
viability, T/C [30]: 5.5%
viability, T/C [31]: 19.9%
viability, T/C [32]: 18%
viability, T/C [33]: 16.7%
viability, T/C [34]: 13.1%
viability, T/C [35]: 6.93%
viability, T/C [36]: 3.76%

CC(Nc1ccc2c(c1)OCCn1cc(N3C(=O)OCC3C(F)F)nc1-2)C(N)=O (stereo unspecified) + CCn1c(-c2cc(N3CCN(C)CC3)cnc2C(C)OC)c2c3cc(ccc31)-c1csc(n1)CC(NC(=O)C1CC1C)C(=O)N1CCCC(N1)C(=O)OCC(C)(C)C2
IC50 (second compound 0.000949 µM): 364 nM
IC50 (second compound 0.003 µM): 95.1 nM
IC50 (second compound 0.00949 µM): < 31.6 nM
IC50 (second compound 0.03 µM): < 31.6 nM
IC50 (second compound 0.0949 µM): < 31.6 nM
IC50 (second compound 0.3 µM): < 31.6 nM
viability, T/C [1]: 85.8%
viability, T/C [2]: 85.2%
viability, T/C [3]: 39.8%
viability, T/C [4]: 39.1%
viability, T/C [5]: 26.5%
viability, T/C [6]: 11.5%
viability, T/C [7]: 70.6%
viability, T/C [8]: 47.3%
viability, T/C [9]: 32.9%
viability, T/C [10]: 22.4%
viability, T/C [11]: 14.5%
viability, T/C [12]: 5.29%
viability, T/C [13]: 40.7%
viability, T/C [14]: 25.1%
viability, T/C [15]: 18.2%
viability, T/C [16]: 11.3%
viability, T/C [17]: 4.65%
viability, T/C [18]: 3.19%
viability, T/C [19]: 26.4%
viability, T/C [20]: 17.9%
viability, T/C [21]: 10.6%
viability, T/C [22]: 5.37%
viability, T/C [23]: 1.87%
viability, T/C [24]: 1.22%
viability, T/C [25]: 16.7%
viability, T/C [26]: 11.5%
viability, T/C [27]: 7.81%
viability, T/C [28]: 3.68%
viability, T/C [29]: 1.35%
viability, T/C [30]: 0.91%
viability, T/C [31]: 16.5%
viability, T/C [32]: 11.3%
viability, T/C [33]: 5.47%
viability, T/C [34]: 3.22%
viability, T/C [35]: 1.55%
viability, T/C [36]: 1.07%

O=C(c1ccc(F)c(F)c1Nc1ccc(I)cc1F)N1CC(O)([C@@H]2CCCCN2)C1 + CCn1c(-c2cc(N3CCN(C)CC3)cnc2C(C)OC)c2c3cc(ccc31)-c1csc(n1)CC(NC(=O)C1CC1C)C(=O)N1CCCC(N1)C(=O)OCC(C)(C)C2
IC50 (second compound 0.000949 µM): 35.4 nM
IC50 (second compound 0.003 µM): 12.2 nM
IC50 (second compound 0.00949 µM): < 3.16 nM
IC50 (second compound 0.03 µM): < 3.16 nM
IC50 (second compound 0.0949 µM): < 3.16 nM
IC50 (second compound 0.3 µM): < 3.16 nM
viability, T/C (second compound 0.000949 µM, first compound 0.00316 µM): 89.8%
viability, T/C (second compound 0.000949 µM, first compound 0.01 µM): 71.1%
viability, T/C [1]: 44.3%
viability, T/C [2]: 42.3%
viability, T/C [3]: 29%
viability, T/C [4]: 16.6%
viability, T/C (second compound 0.003 µM, first compound 0.00316 µM): 72.4%
viability, T/C (second compound 0.003 µM, first compound 0.01 µM): 47.5%
viability, T/C [7]: 39.8%
viability, T/C [8]: 32.4%
viability, T/C [9]: 23.1%
viability, T/C [10]: 15.4%
viability, T/C (second compound 0.00949 µM, first compound 0.00316 µM): 39.9%
viability, T/C (second compound 0.00949 µM, first compound 0.01 µM): 30.8%
viability, T/C [13]: 30.6%
viability, T/C [14]: 21.9%
viability, T/C [15]: 15.2%
viability, T/C [16]: 16.2%
viability, T/C (second compound 0.03 µM, first compound 0.00316 µM): 24.9%
viability, T/C (second compound 0.03 µM, first compound 0.01 µM): 21.4%
viability, T/C [19]: 19.8%
viability, T/C [20]: 18%
viability, T/C [21]: 14.5%
viability, T/C [22]: 14%
viability, T/C (second compound 0.0949 µM, first compound 0.00316 µM): 21.9%
viability, T/C (second compound 0.0949 µM, first compound 0.01 µM): 17.8%
viability, T/C [25]: 17.6%
viability, T/C [26]: 14.1%
viability, T/C [27]: 11.2%
viability, T/C [28]: 12.3%
viability, T/C (second compound 0.3 µM, first compound 0.00316 µM): 17.4%
viability, T/C (second compound 0.3 µM, first compound 0.01 µM): 16.4%
viability, T/C [31]: 13.3%
viability, T/C [32]: 14.1%
viability, T/C [33]: 10.9%
viability, T/C [34]: 11.3%
